# Values quoted from earlier work in patent publication US10668130B2, “Formulation for targeting cancer in humans and canines using chlorotoxin” (priority 2017, dated 2020).
# Tests used:
# [1] = system: outwardly rectifying Cl— channels; details: planar lipid bilayers
# [2] = target: CFTR Cl— channels (Homo sapiens, UniProt P13569); details: sub-micromolar concentrations
# [3] = system: volume-regulated Cl— channels; details: sub-micromolar concentrations
# [4] = system: Ca2+-activated Cl— channels; details: sub-micromolar concentrations
# Sequence of CFTR Cl— channels (P13569 whole entry): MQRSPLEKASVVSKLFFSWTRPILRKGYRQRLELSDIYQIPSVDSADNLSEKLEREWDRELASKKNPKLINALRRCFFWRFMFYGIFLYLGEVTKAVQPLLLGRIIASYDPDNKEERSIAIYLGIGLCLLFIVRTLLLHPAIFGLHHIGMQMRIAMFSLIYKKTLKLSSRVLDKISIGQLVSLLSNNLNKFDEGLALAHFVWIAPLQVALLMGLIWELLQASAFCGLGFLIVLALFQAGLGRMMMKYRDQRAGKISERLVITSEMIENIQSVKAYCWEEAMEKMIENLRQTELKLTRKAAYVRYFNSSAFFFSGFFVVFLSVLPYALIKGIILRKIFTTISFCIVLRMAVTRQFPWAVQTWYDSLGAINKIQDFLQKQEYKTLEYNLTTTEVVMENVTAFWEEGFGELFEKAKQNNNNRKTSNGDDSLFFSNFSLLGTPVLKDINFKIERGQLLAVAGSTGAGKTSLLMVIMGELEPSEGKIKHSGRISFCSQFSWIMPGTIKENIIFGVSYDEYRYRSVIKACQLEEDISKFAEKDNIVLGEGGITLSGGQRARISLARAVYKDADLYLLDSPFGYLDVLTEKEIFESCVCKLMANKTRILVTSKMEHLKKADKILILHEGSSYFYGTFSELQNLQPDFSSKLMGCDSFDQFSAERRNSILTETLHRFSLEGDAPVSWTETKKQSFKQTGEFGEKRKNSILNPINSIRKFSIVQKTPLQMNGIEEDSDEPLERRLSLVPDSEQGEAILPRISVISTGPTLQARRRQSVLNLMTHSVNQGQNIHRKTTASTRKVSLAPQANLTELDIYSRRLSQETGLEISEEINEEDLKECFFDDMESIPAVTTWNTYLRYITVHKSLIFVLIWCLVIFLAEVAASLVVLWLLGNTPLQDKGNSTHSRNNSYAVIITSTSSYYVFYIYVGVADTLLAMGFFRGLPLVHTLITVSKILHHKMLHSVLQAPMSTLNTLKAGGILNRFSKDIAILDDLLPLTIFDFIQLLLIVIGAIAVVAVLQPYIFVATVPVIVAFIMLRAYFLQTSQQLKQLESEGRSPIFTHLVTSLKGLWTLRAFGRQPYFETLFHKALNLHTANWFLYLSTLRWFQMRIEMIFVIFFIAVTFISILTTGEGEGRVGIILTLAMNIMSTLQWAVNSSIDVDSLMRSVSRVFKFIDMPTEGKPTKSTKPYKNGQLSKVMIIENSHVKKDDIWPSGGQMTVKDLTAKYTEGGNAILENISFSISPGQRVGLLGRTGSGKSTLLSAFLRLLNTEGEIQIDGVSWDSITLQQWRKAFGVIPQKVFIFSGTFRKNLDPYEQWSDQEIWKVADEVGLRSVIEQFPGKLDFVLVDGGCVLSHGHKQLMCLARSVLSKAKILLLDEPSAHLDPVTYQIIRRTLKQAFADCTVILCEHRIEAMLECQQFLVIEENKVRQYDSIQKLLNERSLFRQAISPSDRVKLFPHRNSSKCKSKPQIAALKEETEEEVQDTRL
substance,measurement,setting,value
chlorotoxin,effect on outwardly rectifying Cl— channels,[1],inhibited
same,effect on CFTR Cl— channels,[2],without effect
same,effect on volume-regulated Cl— channels,[3],without effect
same,effect on Ca2+-activated Cl— channels,[4],without effect
